The test system of the experiment is Adult houseflies. Briefly: Knock-down test on adult houseflies by spraying oil solution in a cubic chamber. Format: in vivo, housefly (Musca domestica). Particulars: 0.7 ml of 0.00625% oil solution sprayed into 70 cm cubic chamber; 5 male and 5 female adult houseflies; counted up to 10 minutes after spraying. How it is done:
A solution of 0.00625 part of the present compound (1) in 10 parts of dichloromethane was mixed with 89.99375 parts of deodorized kerosene to obtain a 0.00625% oil solution.
Adult houseflies (5 males and 5 females) were left in a cubic chamber (70 cm at each side). Into the chamber, 0.7 ml of 0.00625% oil solution of the present compound (1) prepared above was sprayed with a spray gun at a pressure of 8.8×10^4 Pa from a small window on the side of the chamber. Then, up to 10 minutes after spraying, the number of knocked-down insects was counted with time. From the results, a time required for knocking down 90% of the tested insects (KT90) was calculated.
In addition, the same test was carried out that 5-benzyl-3-furylmethyl (1R)-cis-2,2-dimethyl-3-((E)-3-ethoxy-3-oxo-1-propenyl)cyclopropanecarboxylate represented by the formula:
[drawing 6] (hereinafter, referred to as the comparative compound (A)), which is the compound described in GB-A-1413491 as compound P19/2; and 3-phenylbenzyl (1R)-cis-2,2-dimethyl-3-((E)-3-ethoxy-2-fluoro-3-oxo-1-propenyl)cyclopropanecarboxylate represented by the formula:
[drawing 7] (hereinafter, referred to as the comparative compound (B)), which is the compound described in U.S. Pat. No. 4,489,093 as example 12 were used as comparative compounds (repeated twice).

Consider `CCOC(=O)/C(F)=C\[C@H]1[C@@H](C(=O)OCc2cccc(-c3ccccc3)c2)C1(C)C` [Comparative compound (B), 3-phenylbenzyl (1R)-cis-2,2-dimethyl-3-((E)-3-ethoxy-2-fluoro-3-oxo-1-propenyl)cyclopropanecarboxylate], for which the “KT90 (time required for knocking down 90% of the tested insects)” value turned out to be 8.9 min.

Regarding `CCOC(=O)/C(F)=C\[C@H]1[C@@H](C(=O)OCc2coc(Cc3ccccc3)c2)C1(C)C` [Present compound (1), 5-benzyl-3-furylmethyl (1R)-cis-2,2-dimethyl-3-((E)-3-ethoxy-2-fluoro-3-oxo-1-propenyl)cyclopropanecarboxylate], the “KT90 (time required for knocking down 90% of the tested insects)” value is 2.9 min.

On to `CCOC(=O)/C=C/[C@H]1[C@@H](C(=O)OCc2coc(Cc3ccccc3)c2)C1(C)C` [Comparative compound (A), 5-benzyl-3-furylmethyl (1R)-cis-2,2-dimethyl-3-((E)-3-ethoxy-3-oxo-1-propenyl)cyclopropanecarboxylate], for which the “KT90 (time required for knocking down 90% of the tested insects)” value came out at 8.0 min.

The values above are taken from patent publication US7569603B2, “Ester compound and its use in pest control” (Sumitomo Chemical Company, Limited, priority 2006, dated 2009).
